{"source": "patent US7754896B2", "about": "“Indol-alanine derivatives as selective S1P4-agonists” (Novartis AG, priority 2004, dated 2010)", "key": {"CHO": {"tested_on": "CHO", "assay": "Calcium mobilization assay, parental CHO cells", "type": "cell-based", "settings": "Cricetulus griseus", "protocol": "CHO cells are plated in black Costar plate (96 or 384 well, 50,000 cells or 12,500 cells, respectively) in a MEM with FCS and cultured for 20-24 h at 37° C. in a CO2 incubator. After the removal of the culture medium cells are incubated in HBSS medium containing 2 μM Fluo4AM (Molecular Probes, Cat. No, F-1241; 1 mg/ml stock in DMSO), 5 mM probenicid for 1 h at 37° C., rinsed with HBSS buffer, 2.5 mM probenicid and overlaid with the same medium (75 μl for 96-well plates, 50 μl for 384 plates). The plates are transferred to the FLIPR. After measuring the baseline for 40 sec, the agonist in HBSS is added and the fluorescence is measured at intervals of 2 sec for 3 to 5 min. In some cases the cells are pre-treated for 5 h with 50 ng/ml pertussis toxin (Sigma, Cat Nr P2980). […]\nThe compounds mentioned in this application are tested for specificity, e.g. the activity they have in the parental cell line prior transformation with the S1P4 cDNA and for selectivity on CHO cells lines transformed with the S1P1, S1P2, S1P3, and S1P5. […] For example, S1P4 specific and selective compounds may have an EC50 (apparent EC50) measured at S1P4 that is 10×, preferably 100× lower that that measured in wild type CHO cells or In cell expressing any of the other four S1P receptors."}, "S1P2": {"target": "T1, S1P2 (Homo sapiens, UniProt O95136)", "T1 construct": "expressed in transfected cells", "T1 sequence (O95136 whole entry)": "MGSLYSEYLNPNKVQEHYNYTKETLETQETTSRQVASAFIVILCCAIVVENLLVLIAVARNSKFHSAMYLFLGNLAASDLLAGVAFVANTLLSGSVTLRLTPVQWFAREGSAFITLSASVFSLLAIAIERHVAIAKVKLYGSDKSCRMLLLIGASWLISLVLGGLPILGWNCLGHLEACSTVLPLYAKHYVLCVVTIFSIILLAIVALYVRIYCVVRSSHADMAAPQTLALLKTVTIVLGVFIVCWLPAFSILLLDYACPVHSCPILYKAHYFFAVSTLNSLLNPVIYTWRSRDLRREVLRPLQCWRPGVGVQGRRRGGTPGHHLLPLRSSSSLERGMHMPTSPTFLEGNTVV", "assay": "GTPγS binding assay, S1P2", "type": "biochemical", "settings": "CHO cells expressing S1P2", "excerpt": "Human S1P1 (GenBank™ accession number M31210) and S1P3 (GenBank™ accession number X83864) cDNA containing the myc sequence in front to the human S1P1 and S1P3 sequences are inserted in the pcDNA 3.1 vector. The vectors are sequenced to completion to confirm the correctness of the construct. The human S1P2 (GI: 4090955, TREMBL: 0195136) is cloned by a PCR based method. Lung cDNA (marathon cDNA) is obtained (BD Biosciences Chontech, Palo Alto, Calif. 94303, USA). Following oligonucleotides are used for the PCR reaction: forward primer CACCATGGGCAGCTTGTACTCGGAGTACCT GM CCC CAA CM GGT CCA G (1 to 45, GenBank™ accession number AF034780) and reverse primer 5′-GATTCAGACCACCGTGTTGCCCTCCAG (1062 to 1039, GenBank™ accession number AF034780), the initiation of the translation (ATG) and the stop codon are underlined. […] The amplified product of around 1100 bp is analyzed by standard agarose gel-electrophoresis. […]\nMembrane proteins are prepared from wild type CHO-K1 and the CHO cell clones expressing human S1P4. […] The protein concentration is determined using the Bio Rad Protein Assay and human IgG as standard. […]"}}, "data": [{"smiles": "NC(CNC(=O)c1cc2c(-c3ccccc3Cc3ccccc3)cccc2[nH]1)C(=O)O", "note": "(centres unmarked) [Example 2]", "values": [{"measurement": "EC50", "setting": "CHO", "result": "> 6", "unit": "µM"}, {"measurement": "EC50", "setting": "S1P2", "result": "> 10", "unit": "µM"}]}]}
